In PMC10641818, “Development of First-in-Class Dual Sirt2/HDAC6 Inhibitors as Molecular Tools for Dual Inhibition of Tubulin Deacetylation” (Journal of Medicinal Chemistry, 2023):

Assays:
[1] = test system: PC-3M-luc prostate cancer cells; assay: Cell viability assay (MTS) PC-3M-luc; format: cell-based; details: 72 h, @ 50 μM
Experimental: (§1) Cell viability assays of HGC27 and PC-3M-luc cells were performed by using the Celltiter 96 Aqueous Nonradioactive Proliferation Assay (Promega). Cells were seeded in sterile 96-well plates at a density of 2000 cells per well and incubated overnight at 37 °C and 5% CO2. Compound or vehicle were added to a final concentration of 0.5% DMSO. […] Cells were seeded at densities of 10^4 cells/well for W1 cells or 2 × 10^3 cells/well for MCF-7 cells. Tests were performed in 96-well plates (Sarstedt AG, Nümbrecht, Germany). After incubation overnight, cells were supplemented with half logarithmic dilution series of the indicated compounds and DPBS (PAN Biotech GmbH, Aidenbach, Germany) as control. Then 72 h after addition of cytostatic treatment, the MTT solution (20 μL, 5 mg/mL) was added into the wells for 1 h at 37 °C and 5% CO2 until formazan crystals were formed. The supernatant was removed, and the cells were dissolved in 200 μL of DMSO. Absorption was analyzed at 570 nm, with background subtraction at 690 nm, using a plate reader (Thermomultiscan EX, Thermo, Schwerte, Germany). Cell viability was then determined by nonlinear regression and a four-parameter logistic equation with variable hill slope. […] The significance of the difference of the effects of 33 and 4 + 57 was determined by using an unpaired, two-tailed t test with Welch’s correction, implemented in GraphPad Prism 8.4.0 (GraphPad, USA). Statistical significance was accepted if p < 0.05. Asterisks indicate *p < 0.05, **p < 0.01.

[2] = biological target: T1, Sirt2 (Homo sapiens, UniProt Q8IXJ6); assay: Sirt2 in vitro deacetylation assay (ZMAL, trypsin-based fluorescence); format: biochemical; details: deacetylation, mean ± SD
T1 construct: the respective sirtuin (Sirt1_134–747, Sirt2_56–356, or Sirt3_118–395) was mixed with; made in house; host or cells: Escherichia coli BL21 Star (DE3)
T1 sequence (Q8IXJ6 56-356): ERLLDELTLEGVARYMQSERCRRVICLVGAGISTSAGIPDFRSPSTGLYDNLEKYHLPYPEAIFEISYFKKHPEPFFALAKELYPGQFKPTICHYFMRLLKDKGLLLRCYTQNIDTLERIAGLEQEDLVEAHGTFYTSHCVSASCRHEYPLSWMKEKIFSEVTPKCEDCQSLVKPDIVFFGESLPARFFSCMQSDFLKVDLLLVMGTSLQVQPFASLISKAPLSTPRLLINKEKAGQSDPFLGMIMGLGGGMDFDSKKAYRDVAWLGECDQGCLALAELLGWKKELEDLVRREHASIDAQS

[3] = biological target: T2, HDAC2 (Homo sapiens, UniProt Q92769); assay: HDAC2 in vitro deacetylation assay (ZMAL); format: biochemical; details: mean ± SD
T2 construct: purchased BPS Bioscience 50052
T2 sequence (Q92769 whole entry): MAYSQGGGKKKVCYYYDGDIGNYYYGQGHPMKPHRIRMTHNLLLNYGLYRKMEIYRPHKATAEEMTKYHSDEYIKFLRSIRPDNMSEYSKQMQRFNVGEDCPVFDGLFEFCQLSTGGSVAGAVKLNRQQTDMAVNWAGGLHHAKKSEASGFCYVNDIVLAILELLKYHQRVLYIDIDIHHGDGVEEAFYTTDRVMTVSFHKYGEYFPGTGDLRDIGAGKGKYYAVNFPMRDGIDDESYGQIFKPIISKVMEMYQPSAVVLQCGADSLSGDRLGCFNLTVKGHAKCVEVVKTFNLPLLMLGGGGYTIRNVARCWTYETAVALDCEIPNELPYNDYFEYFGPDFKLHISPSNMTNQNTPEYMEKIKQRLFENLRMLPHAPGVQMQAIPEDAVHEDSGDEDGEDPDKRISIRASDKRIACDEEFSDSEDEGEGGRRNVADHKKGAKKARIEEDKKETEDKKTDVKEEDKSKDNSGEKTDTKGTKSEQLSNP

[4] = test system: HGC27 gastric carcinoma cells; assay: Cell viability assay (MTS) HGC27; format: cell-based; details: Homo sapiens, HGC-27; 72 h, MTS, mean ± SD
Experimental: as §1

[5] = biological target: T3, HDAC3/NcoR2 (Homo sapiens, UniProt O15379); assay: HDAC3 in vitro deacetylation assay (ZMAL); format: biochemical; details: mean ± SD
T3 construct: purchased BPS Bioscience 50003
T3 sequence (O15379 whole entry): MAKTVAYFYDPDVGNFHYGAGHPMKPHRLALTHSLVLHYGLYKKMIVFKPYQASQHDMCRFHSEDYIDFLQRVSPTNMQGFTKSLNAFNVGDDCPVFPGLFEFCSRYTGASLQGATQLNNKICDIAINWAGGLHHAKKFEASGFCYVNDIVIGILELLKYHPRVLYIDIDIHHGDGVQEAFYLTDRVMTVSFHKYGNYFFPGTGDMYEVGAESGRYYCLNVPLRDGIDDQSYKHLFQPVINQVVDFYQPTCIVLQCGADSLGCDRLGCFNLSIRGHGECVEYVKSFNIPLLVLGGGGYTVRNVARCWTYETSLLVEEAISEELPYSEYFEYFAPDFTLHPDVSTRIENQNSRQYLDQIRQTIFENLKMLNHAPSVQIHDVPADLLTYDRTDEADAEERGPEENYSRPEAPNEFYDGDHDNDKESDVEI
T3 sequence (Q9Y618 395-489 partner limits assumed): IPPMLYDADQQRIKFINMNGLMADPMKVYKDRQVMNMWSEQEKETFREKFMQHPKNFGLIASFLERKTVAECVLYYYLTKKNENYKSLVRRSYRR

[6] = biological target: T4, Sirt3 (Homo sapiens, UniProt Q9NTG7); assay: Sirt3 in vitro deacetylation assay (ZMAL); format: biochemical
T4 construct: the respective sirtuin (Sirt1_134–747, Sirt2_56–356, or Sirt3_118–395) was mixed with; made in house; host or cells: Escherichia coli BL21 Star (DE3)
T4 sequence (Q9NTG7 118-395): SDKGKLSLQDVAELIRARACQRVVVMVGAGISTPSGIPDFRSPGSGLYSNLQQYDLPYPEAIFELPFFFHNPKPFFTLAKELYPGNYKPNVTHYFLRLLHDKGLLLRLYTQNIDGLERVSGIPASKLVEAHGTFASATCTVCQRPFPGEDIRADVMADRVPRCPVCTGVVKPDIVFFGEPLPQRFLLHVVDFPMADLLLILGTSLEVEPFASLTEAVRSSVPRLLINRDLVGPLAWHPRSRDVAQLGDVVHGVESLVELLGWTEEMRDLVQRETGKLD

[7] = biological target: T5, HDAC6 (Homo sapiens, UniProt Q9UBN7); assay: HDAC6 in vitro deacetylation assay (ZMAL); format: biochemical; parameters: purchased BPS Bioscience 50006; details: deacetylation, mean ± SD
T5 sequence (Q9UBN7 1-1215): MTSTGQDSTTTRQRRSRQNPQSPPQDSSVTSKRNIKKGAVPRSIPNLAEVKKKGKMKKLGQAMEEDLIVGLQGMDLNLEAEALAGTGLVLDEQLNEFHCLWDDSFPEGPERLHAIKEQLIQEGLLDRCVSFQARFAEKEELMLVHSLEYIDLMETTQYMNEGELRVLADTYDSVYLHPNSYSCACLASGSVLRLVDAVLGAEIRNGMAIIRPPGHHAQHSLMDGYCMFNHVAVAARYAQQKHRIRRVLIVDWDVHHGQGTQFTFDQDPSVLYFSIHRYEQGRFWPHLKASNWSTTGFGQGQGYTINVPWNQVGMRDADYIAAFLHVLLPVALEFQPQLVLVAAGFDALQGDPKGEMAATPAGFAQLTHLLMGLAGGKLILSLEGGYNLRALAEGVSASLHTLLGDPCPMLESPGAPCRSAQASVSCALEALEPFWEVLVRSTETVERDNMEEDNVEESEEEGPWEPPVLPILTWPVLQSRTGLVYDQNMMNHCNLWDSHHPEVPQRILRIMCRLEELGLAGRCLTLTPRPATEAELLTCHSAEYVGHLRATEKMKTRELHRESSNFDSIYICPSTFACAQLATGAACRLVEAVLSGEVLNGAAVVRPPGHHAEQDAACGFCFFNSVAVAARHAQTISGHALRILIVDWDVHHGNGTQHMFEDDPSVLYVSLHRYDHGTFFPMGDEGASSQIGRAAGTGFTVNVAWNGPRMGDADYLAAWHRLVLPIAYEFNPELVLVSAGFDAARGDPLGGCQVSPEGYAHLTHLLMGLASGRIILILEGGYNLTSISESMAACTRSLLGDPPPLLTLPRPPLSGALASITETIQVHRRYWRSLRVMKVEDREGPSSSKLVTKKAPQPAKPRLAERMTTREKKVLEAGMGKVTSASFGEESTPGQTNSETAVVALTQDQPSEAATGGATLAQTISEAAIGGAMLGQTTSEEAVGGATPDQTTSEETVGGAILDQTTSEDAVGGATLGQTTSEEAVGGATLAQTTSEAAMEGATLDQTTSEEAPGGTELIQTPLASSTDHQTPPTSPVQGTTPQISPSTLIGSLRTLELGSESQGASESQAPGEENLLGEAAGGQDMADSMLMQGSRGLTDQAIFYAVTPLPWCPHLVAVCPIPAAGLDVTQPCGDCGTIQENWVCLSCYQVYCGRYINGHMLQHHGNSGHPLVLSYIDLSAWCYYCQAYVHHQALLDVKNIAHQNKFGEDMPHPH

[8] = biological target: T6, HDAC1 (Homo sapiens, UniProt Q13547); assay: HDAC1 in vitro deacetylation assay (ZMAL); format: biochemical; details: deacetylation, mean ± SD
T6 construct: purchased BPS Bioscience 50051
T6 sequence (Q13547 whole entry): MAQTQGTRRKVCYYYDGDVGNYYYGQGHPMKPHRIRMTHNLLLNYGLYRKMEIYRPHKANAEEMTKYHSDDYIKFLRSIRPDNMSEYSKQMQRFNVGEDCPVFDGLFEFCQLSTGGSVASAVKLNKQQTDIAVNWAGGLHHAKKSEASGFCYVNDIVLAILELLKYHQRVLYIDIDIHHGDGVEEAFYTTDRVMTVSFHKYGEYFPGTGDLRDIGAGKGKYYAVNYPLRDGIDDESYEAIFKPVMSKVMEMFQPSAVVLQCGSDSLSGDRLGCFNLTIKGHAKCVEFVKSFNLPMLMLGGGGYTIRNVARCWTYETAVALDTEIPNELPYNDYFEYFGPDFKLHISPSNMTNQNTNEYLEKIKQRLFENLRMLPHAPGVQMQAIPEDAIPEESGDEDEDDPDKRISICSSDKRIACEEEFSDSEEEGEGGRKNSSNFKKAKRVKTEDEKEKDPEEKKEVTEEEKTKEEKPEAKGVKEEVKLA

[9] = test system: W1 ovarian cancer cells; assay: Cell viability assay (MTT) W1; format: cell-based; details: 72 h, @ 50 μM
Experimental: as §1

[10] = test system: MCF-7 breast cancer cells; assay: Cell viability assay (MTT) MCF-7; format: cell-based; details: 72 h, @ 50 μM
Experimental: as §1

[11] = biological target: T7, Sirt1 (Homo sapiens, UniProt Q96EB6); assay: Sirt1 in vitro deacetylation assay (ZMAL); format: biochemical
T7 construct: the respective sirtuin (Sirt1_134–747, Sirt2_56–356, or Sirt3_118–395) was mixed with; made in house; host or cells: Escherichia coli BL21 Star (DE3)
T7 sequence (Q96EB6 134-747): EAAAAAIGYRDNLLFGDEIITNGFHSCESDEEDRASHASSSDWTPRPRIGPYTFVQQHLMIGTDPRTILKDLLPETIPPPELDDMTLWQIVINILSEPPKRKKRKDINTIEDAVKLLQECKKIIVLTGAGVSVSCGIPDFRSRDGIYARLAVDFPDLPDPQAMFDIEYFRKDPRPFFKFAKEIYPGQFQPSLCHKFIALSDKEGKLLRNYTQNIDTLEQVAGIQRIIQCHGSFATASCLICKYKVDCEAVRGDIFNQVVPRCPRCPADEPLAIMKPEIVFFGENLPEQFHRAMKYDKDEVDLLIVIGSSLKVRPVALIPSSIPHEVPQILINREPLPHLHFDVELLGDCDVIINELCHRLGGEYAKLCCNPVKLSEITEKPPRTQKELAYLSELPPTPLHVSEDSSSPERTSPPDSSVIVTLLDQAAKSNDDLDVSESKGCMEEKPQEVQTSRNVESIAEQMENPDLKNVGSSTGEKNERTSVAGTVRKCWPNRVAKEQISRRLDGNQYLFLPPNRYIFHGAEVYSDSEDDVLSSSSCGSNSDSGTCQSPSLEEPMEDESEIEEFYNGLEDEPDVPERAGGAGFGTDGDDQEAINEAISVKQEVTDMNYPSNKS

[12] = biological target: T8, Sirt2 (demyristoylation) (Homo sapiens, UniProt Q8IXJ6); assay: Discontinuous Sirt2 demyristoylation assay (ZMML substrate); format: biochemical; details: mean ± SD
T8 construct: the respective sirtuin (Sirt1_134–747, Sirt2_56–356, or Sirt3_118–395) was mixed with; made in house; host or cells: Escherichia coli BL21 Star (DE3)
T8 sequence (Q8IXJ6 56-356): T1 sequence (Q8IXJ6 56-356)

IC50 [2]: 480 ± 70 nM | IC50 [3]: 340 ± 20 nM | EC50 [4]: 17200 ± 1000 nM | IC50 [5]: 140 ± 10 nM | inhibition at 20 µM [6]: < 15% | IC50 [7]: 5 ± 0.5 nM | IC50 [8]: 210 ± 30 nM | inhibition at 20 µM [11]: < 15% | IC50 [12]: 13200 ± 1900 nM
Compound: Cc1cc(C)nc(SCC(=O)Nc2ncc(Cc3cccc(OCc4cn(CCOCCOCCOCCOCCC(=O)Nc5ccc(C(=O)NCCCCCCC(=O)NO)cc5)nn4)c3)s2)n1 [Compound 46, 4-(1-(4-((3-((2-(2-((4,6-Dimethylpyrimidin-2-yl)thio)acetamido)thiazol-5-yl)methyl)phenoxy)methyl)-1H-1,2,3-triazol-1-yl)-3,6,9,12-tetraoxapentadecan-15-amido)-N-(7-(hydroxyamino)-7-oxoheptyl)benzamide]
PC-3M-luc cellular effect [1]: ni ^b (ni = no inhibition (cellular effect <20% @ 50 μM)) | W1 cellular effect [9]: ni ^b (ni = no inhibition (cellular effect <20% @ 50 μM)) | MCF-7 cellular effect [10]: ni ^b (ni = no inhibition (cellular effect <20% @ 50 μM))
